Values after ≈ are worked out from the molar mass of the structure shown.
Tests used:
[1] = system: Mycobacterium tuberculosis; assay: Antimycobacterial activity against multidrug-resistant Mycobacterium tuberculosis FURG-2 assessed as inhibition of bacterial growth measured by Resazurin microtitre assay; format: functional
[2] = system: Mycobacterium tuberculosis; assay: Inhibition of Multidrug resistance efflux pump in Mycobacterium tuberculosis FURG-2 assessed as relative final fluorescence at 3.12 ug/ml measured by ethidium bromide accumulation assay; conditions: dose 3.12 µg/ml
[3] = system: Mycobacterium tuberculosis H37Rv; assay: Inhibition of Multidrug resistance efflux pump in Mycobacterium tuberculosis H37Rv assessed as relative final fluorescence at 6.26 ug/ml measured by ethidium bromide accumulation assay; conditions: dose 6.26 µg/ml
[4] = system: Mycobacterium tuberculosis H37Rv; assay: Inhibition of Multidrug resistance efflux pump in Mycobacterium tuberculosis H37Rv assessed as reduction in rifampicin MIC at 1.56 ug/ml measured by ethidium bromide accumulation assay; conditions: dose 1.56 µg/ml

Compound: O=C(C1=CN(CCc2ccccc2)C(NCCc2ccccc2)CC1)C(F)(F)F (centres undefined)
- MIC [1]: 12.5 µg/mL (≈ 31.1 µM)
- RFU [2]: 1.07
- RFU [3]: -0.2
- MIC [4]: 16 µg/mL

— ChEMBL document CHEMBL4834440, “2,2,2-trifluoro-1-(1,4,5,6-tetrahydropyridin-3-yl)ethanone derivative as efflux pump inhibitor in Mycobacterium tuberculosis” (Bioorg Med Chem Lett, 2021)
